Source: patent US4888347A, “Use of specific N-methyl-D-aspartate receptor antagonists in the prevention and treatment of neurodegeneration” (Merck Sharp & Dohme Limited, priority 1986, dated 1989)
Like-named read-outs stand apart in the source and are kept apart here.

How the values were obtained:
[1] = target: N-methyl-D-aspartate (NMDA) receptors ([3H]-MK-801 binding); test: Displacement of [3H]-MK-801 binding, crude synaptosomal membrane fraction (P2) from rat cerebral cortex; settings: displacement of [3H]-MK-801, rat cerebral cortex membranes
Experimental: The compounds useful in the novel method of treatment of this invention bind with a high affinity and in a reversible and saturable manner to membranes from rat brain cortex. In addition these useful compounds potently and selectively block responses to NMDA in a brain slice from rate cortex, the antagonism apparently being non-competitive.
Binding of [^3 H]-MK-801 to rat brain in vitro was conducted in a crude synaptosomal membrane fraction (P2) prepared from rat cerebral cortex according to a modified method of Hulme et al, Molecular Pharmocology 14, 737-750 (1978).

[2] = test system: NMDA responses of cortical neurons (NMDA receptor); test: Rat cortical slice, responses to NMDA; assay type: cell-based; settings: read-out: Apparent Potency as NMDA Antagonist Kb
Experimental: (§1) The effects of MK-801 and its analogs on responses to NMDA and quisqualate were assessed using the rat cortical slice as described by Harrison et al., Brit. J. Pharmacol, 84, 381-391 (1985). Cortical neurons in this preparation are depolarized by bath applications of NMDA. MK-801 produces a dose dependent depression of NMDA responses with a threshold dose of about 100 nM and complete suppression of responses at 1 μM.
The apparent potencies of MK-801 and its analogs are shown in Table IV; they correlate closely with results from [^3 H]-MK-801 binding studies.

[3] = test system: NMDA receptor mediated events on central neurons; test: Cortical slices from rats pretreated with MK-801, responses to NMDA; assay type: in vivo, rat; settings: slices from rats pretreated 1 mg/kg i.p. 2 hours before sacrifice, vs untreated animals
Experimental: (§2) The responses to NMDA and quisqualate were examined on cortical slices from 4 rats which had been pretreated with MK-801 (1 mg/kg, i.p) 2 hours before they were sacrificed. Responses to NMDA were markedly depressed resulting in a shift to the right of the NMDA dose-response curve of approximately 2.4 fold when compared to the mean NMDA dose-response curved from untreated animals.

[4] = test system: gerbils (neuronal damage in the hippocampus); test: Gerbil right carotid artery occlusion 10 minutes, repeated MK-801 dosing, neuronal damage in hippocampus; assay type: in vivo; settings: 1 mg/kg i.p. one hour before, then 1, 3, 5, 10 and 15 hours following 10 min occlusion
Experimental: (b) The right carotid artery of gerbils was occluded for 10 minutes and MK-801 at a dose of 1 mg/kg (i.p.) administered one hour before, then 1, 3, 5, 10 and 15 hours following occlusion. The animals were allowed to survive for 4 days and the extent of neuronal damage in the hippocampus was assessed.

[5] = test system: gerbil hippocampus calcium levels; test: Prevention of increases in calcium levels in gerbil hippocampus following bilateral artery occlusion; assay type: in vivo
Excerpt: (d) The neuroprotective activity of compounds for use in accordance with the invention has also been determined by measuring the ability of the compounds to prevent increases in calcium levels in the gerbil hippocampus following bilateral artery occlusion.

responses to quisqualate [6] = test: Cortical slices from rats pretreated with MK-801, responses to quisqualate; assay type: in vivo, rat; settings: slices from rats pretreated 1 mg/kg i.p. 2 hours before sacrifice
Experimental: as §2

responses to quisqualate [7] = test: Rat cortical slice, responses to quisqualate; assay type: cell-based; settings: doses of up to 30 μM
Experimental: as §1

responses to kainate = test: Rat cortical slice, responses to kainate; assay type: cell-based; settings: doses of up to 30 μM
gerbils = test: Gerbil ischaemia, 30 minute unilateral carotid artery occlusion, survival; assay type: in vivo; settings: 30 min occlusion
Experimental: (§3) (a) Ischaemia was induced in gerbils by 10 or 30 minute unilateral occlusion of the carotid artery. Restoration of blood flow after occlusion was checked visually and the animals were allowed to survive for 4 days. The extent of neuronal degeneration in the hippocampus was assessed. Test animals were treated by administering MK-801 at doses of 1 and 10 mg/kg (i.p.) one hour prior to artery occulsion.

[8] = test system: gerbils (neuronal degeneration in the hippocampus); test: Gerbil ischaemia, 5 minute occlusion of both carotid arteries, neuronal degeneration in hippocampus; assay type: in vivo
Experimental: (c) Ischaemia was induced in gerbils by 5 minute occlusion of both carotid arteries. Restoration of blood flow after occlusion was checked visually and the animals allowed to survive for 4 days. The extent of neuronal degeneration in the hippocampus was measured. Test animals were treated by administering MK-801 at doses of 1, 3 and 10 mg/kg (i.p.) one hour prior to occlusion.

[9] = test system: gerbils (neuronal degeneration in the hippocampus); test: Gerbil ischaemia, 10 minute unilateral carotid artery occlusion, neuronal degeneration in hippocampus; assay type: in vivo; settings: 10 min occlusion
Experimental: as §3

[10] = Table I, read-out: Displacement potencies Ki
[11] = Table II, read-out: Displacement potencies Ki

## CN1C2(C)Cc3ccccc3C1(C)c1ccccc12 [L-640,688]
[1]; [10]
  Ki: 710 nM
[2]
  Kb: 870 nM

## CN1C2Cc3ccccc3C1c1ccccc12 [L-638,276]
[1]; [10]
  Ki: 11900 nM

## CC12NC(Cc3ccccc31)c1ccc(Br)cc12 [L-639,442]
[1]; [10]
  Ki: 180 nM
[2]
  Kb: 400 nM

## CCCCN1C2(C)c3ccccc3C1(C)c1ccccc12 [L-633,744]
[1]; Table III, read-out: Ki
  Ki: 390 nM
[2]
  Kb: 470 nM

## CC12c3ccccc3CC(c3ccccc31)N2CCO [L-641,042]
[1]; [10]
  Ki: 12800 nM

## CC12NC(Cc3ccccc31)c1ccccc12 [L-637,939]
[1]; [10]
  Ki: 560 nM
[2]
  Kb: 90 nM

## CCC12NC(Cc3ccccc31)c1ccccc12 [L-639,057]
[1]; [10]
  Ki: 50 nM
[2]
  Kb: 500 nM

## CN1C2(C)c3ccccc3C1(C)c1cc(C#N)ccc12 [L-633,239]
[1]; Table III, read-out: Ki
  Ki: 31300 nM

## CN1C2(C)c3ccccc3C1(C)c1cc(C(F)(F)F)ccc12 [L-631,922]
[1]; Table III, read-out: Ki
  Ki: 109000 nM

## CC12c3ccccc3C(C)(c3ccccc31)N2C1CC1 [L-632,938]
[1]; Table III, read-out: Ki
  Ki: 4000 nM
[2]
  Kb: 640 nM

## CC12NC(Cc3ccccc31)c1cc(O)ccc12 [L-641,285]
[1]; [10]
  Ki: 50 nM
[2]
  Kb: 100 nM

## CC12NC(Cc3ccccc31)Cc1ccccc12 [L-638,204]
[1]; [11]
  Ki: 140 nM
[2]
  Kb: 310 nM

## CC12NC(Cc3ccccc31)c1ccc(Cl)cc12 [L-641,368]
[1]; [10]
  Ki: 80 nM
[2]
  Kb: 1000 nM

## CC12NC(Cc3ccc(Br)cc31)c1ccccc12 [L-639,441]
[1]; [10]
  Ki: 20 nM
[2]
  Kb: 1000 nM

## CCCN1C2(C)c3ccccc3C1(C)c1ccccc12 [L-633,170]
[1]; Table III, read-out: Ki
  Ki: 350 nM
[2]
  Kb: 300 nM

## CC12NC(Cc3ccccc31)c1ccccc12 (single isomer, unassigned) [L-640,689, 5-methyl-10,11-dihydro-5H-dibenzo[a,d]cyclohepten-5,10-imine]
[3]
  shift to the right of the NMDA dose-response curve: approximately 2.4 fold
[4]
  Number of animals showing damage: 1
  Number undamaged: 8
[5]; Meriones unguiculatus, read-out: Depression of Hippocampal [Ca^2+] IC50
  ED50: ~0.1 mg/kg
Responses to quisqualate [6]
  effect on responses to quisqualate: much less affected with only the highest dose slightly depressed
Responses to quisqualate [7]
  effect on responses to quisqualate: totally unaffected
Responses to kainate
  effect on responses to kainate: totally unaffected
gerbils; 1 mg/kg i.p. one hour prior
  Number dead: 4
  Number of animals surviving: 11
gerbils; 10 mg/kg i.p. one hour prior
  Number dead: 1
  Number of animals surviving: 14
[8]; 1 mg/kg i.p. one hour prior to 5 min bilateral occlusion
  Percentage of animals with full protection: 60
[8]; 3 mg/kg i.p. one hour prior to 5 min bilateral occlusion
  Percentage of animals with full protection: 80
[8]; 10 mg/kg i.p. one hour prior to 5 min bilateral occlusion
  Percentage of animals with full protection: 70
[1]; [10]
  Ki: 40 nM
[9]; 1 mg/kg i.p. one hour prior
  Number of animals showing damage: 4
  Number undamaged: 11
[9]; 10 mg/kg i.p. one hour prior
  Number of animals showing damage: 3
  Number undamaged: 12

## CN1C2(C)c3ccccc3C1(C)c1ccccc12 [L-627,891]
[1]; Table III, read-out: Ki
  Ki: 220 nM
[2]
  Kb: 1130 nM

## CN1C2Cc3ccccc3C1(C)c1ccccc1C2 [L-637,686]
[1]; [11]
  Ki: 1200 nM
[2]
  Kb: 2000 nM

## CN1C2c3ccccc3C1(C)c1ccccc12 [L-631,876]
[1]; Table III, read-out: Ki
  Ki: 6930 nM

## C=CCN1C2Cc3ccccc3C1(C)c1ccccc12 [L-639,015]
[1]; [10]
  Ki: 3400 nM
[2]
  Kb: 3100 nM

## CN1C2Cc3ccccc3C1(C)c1ccccc12 [L-638,275]
[1]; [10]
  Ki: 830 nM

## CC12NC(Cc3ccccc31)c1ccc(O)cc12 [L-665,039]
[5]
  Depression of Hippocampal [Ca^2+] Relative Potency (MK-801 = 1): 0.8
[1]; [10]
  Ki: 20 nM
[2]
  Kb: 130 nM

## OCCC12NC(Cc3ccccc31)c1ccccc12 [L-639,902]
[1]; [10]
  Ki: 260 nM
[2]
  Kb: 200 nM

## CCCN1C2Cc3ccccc3C1(C)c1ccccc12 [L-645,156]
[1]; [10]
  Ki: 450 nM

## CC12NC(Cc3ccccc31)c1ccccc12 (single isomer, unassigned) [L-640,690]
[1]; [10]
  Ki: 320 nM
[2]
  Kb: 300 nM

## CC12NC(Cc3cc(O)ccc31)c1ccccc12 [L-641,291]
[5]
  Depression of Hippocampal [Ca^2+] Relative Potency (MK-801 = 1): 1
[1]; [10]
  Ki: 340 nM
[2]
  Kb: 510 nM

## COc1ccc2c(c1)C1Cc3ccccc3C2(C)N1 [L-641,086]
[1]; [10]
  Ki: 40 nM

## CCC12NC(Cc3ccccc31)Cc1ccccc12 [L-639,420]
[1]; [11]
  Ki: 120 nM
[2]
  Kb: 200 nM

## CN1C2Cc3ccccc3C1(C)c1ccccc12 [L-645,114]
[1]; [10]
  Ki: 509 nM

## CC12NC(Cc3ccc(Cl)cc31)c1ccccc12 [L-641,294]
[1]; [10]
  Ki: 10 nM
[2]
  Kb: 50 nM

## COc1ccc2c(c1)CC1NC2(C)c2ccccc21 [L-641,074]
[1]; [10]
  Ki: 605 nM

## CCCC12NC(Cc3ccccc31)c1ccccc12 [L-639,470]
[1]; [10]
  Ki: 8600 nM
[2]
  Kb: 3000 nM

## Clc1ccc2c(c1)C1NC(Cc3ccccc31)C2 [L-639,450]
[1]; [11]
  Ki: 150 nM
